The term IC50 denotes the concentration needed to halve the response being measured. A lower IC50 goes with higher potency. Usually inhibition stands for the drop in the measured response relative to a control, in per cent. A low value points to a weak effect.

The structures appear in SMILES notation. ≈ marks a conversion by molar mass, not a printed value.

The subject of assay [1] is Plasmodium falciparum. Description: Antiplasmodial activity against Plasmodium falciparum K1. It is filed as functional, organism-based.
Assay [2] concerns Plasmodium falciparum. Description: Antiplasmodial activity against Plasmodium falciparum NF54. Type of assay: functional, organism-based.
The subject of assay [3] is Trypanosoma brucei rhodesiense. Description: Antitrypanosomal activity against Trypanosoma rhodesiense. It is filed as functional, organism-based.
The next assay has as its system tyrosine kinase. Description: Inhibition of tyrosine kinase at 1 ug/uL.

Consider `C[C@@H]1CC[C@H]2[C@@H](C)C(=O)O[C@@H]3O[C@@]4(C)CC[C@@H]1[C@]32OO4` [ARTEMISININ], for which the IC50 came out at 0.0014 mg/L (≈ 0.00496 µM) with Plasmodium falciparum [1] and 0.0025 mg/L (≈ 0.00885 µM) in the assay on Plasmodium falciparum [2].
As to `C=C1CCC[C@H]2[C@](C)(CC3=C(O)C(=O)C=C(OC)C3=O)[C@@H](C)CC[C@]12C` [ILIMAQUINONE], the IC50 with Plasmodium falciparum [1] was 1.74 mg/L (≈ 4.86 µM); in assay [3], 7.7 mg/L (≈ 21.5 µM); with Plasmodium falciparum [2] it was 0.949 mg/L (≈ 2.65 µM). In addition, in the assay with tyrosine kinase, the inhibition turned out to be 87%.
Regarding `COC(=O)c1cc(O)c(O)c2c1[C@]1(C)CC[C@H]3C(C)(C)CCC[C@]3(C)[C@H]1C2` [PELOROL], the IC50 came out at 0.786 mg/L (≈ 2.11 µM) in the assay with Plasmodium falciparum [1], 17.4 mg/L (≈ 46.7 µM) in assay [3] and 1.91 mg/L (≈ 5.13 µM) in the assay on Plasmodium falciparum [2].

Source of the values: ChEMBL document CHEMBL1155571, “Pelorol from the tropical marine sponge Dactylospongia elegans” (J Nat Prod, 2000).
